SMILES strings stand for the structures.

In data set [1] the test system is Compound 48/80-induced scratching. Briefly: mouse scratch model: antagonism of Compound 48/80-induced scratching. The class given is in vivo, male Swiss albino mice. Particulars: s.c.; for Mean % Inhibition of Scratching: Compound 48/80 challenge, scratching counted for 30 min; for antagonism of Compound 48/80-induced scratching (in words): mice. The procedure:
Testing was performed in a mouse scratch model under blind conditions.
Groups of 8-10 male Swiss albino mice (Hilltop Lab Animals, Inc., Scottsdale, Pa.), weighing […], were used in the testing. They were housed under controlled temperature of 23-25° C. Food and water were freely available. Before the experiments, the mice were weighed, put into individual boxes and allowed to acclimate for 30 min.
Vehicle used to dissolve the test compounds: 20% w/w cremophor EL.
100 μl of the vehicle (3-5 doses, n=8-10) was injected s.c. into the back of the neck of mice 20 min. before challenging them with 100 μl of Compound 48/80 (2 mg/ml; […]) injected s.c. into the back of the neck.
To each mouse of a group of 8-10 mice previously subjected to the standard challenge various doses of the compounds, to be tested for anti-pruritic activity, were administered s.c. into the back of the neck.
For each group of 8-10 mice, the mean values for scratching were normalized to relative % antagonism of scratching and then plotted vs. dose of test compounds. Interval estimates of mean A50 were determined by nonlinear regression analysis (Kaleida Graph) and mean % inhibition of scratching was calculated.

The conditions of data set [2]: i.v. administration; cited from earlier work.

For `Cl.O=C(O)C1(c2ccccc2)CCN(CCC(c2ccccc2)(c2ccccc2)c2ccccn2)CC1` [(1), 1-[3,3-diphenyl-3-(2-pyridyl)propyl]-4-phenyl-4-piperidinecarboxylic acid hydrochloride], the “Mean % Inhibition of Scratching” value in data set [1] (dose 2.5 mg/kg) came to 32%; in data set [1] (dose 5.0 mg/kg) it was 65%; in data set [1] (dose 10.0 mg/kg), 83%. For the same compound, the “antagonism of Compound 48/80-induced scratching (in words)” value (from here on “antagonism”) in data set [1] is recorded as “antagonized Compound 48/80-induced scratching in a dose-related manner”.
On to `OC1(Cc2ccc(Cl)cc2)CCN(CCC(c2ccccc2)(c2ccccc2)c2ccccc2)CC1` [(2), 1-(3,3,3-triphenylpropyl)-4-hydroxy-4-p-chlorobenzylpiperidine], for which the “Mean % Inhibition of Scratching” value is reported as 35% in data set [1] (dose 1.0 mg/kg), 68% in data set [1] (dose 2.5 mg/kg) and 94% in data set [1] (dose 5.0 mg/kg). Besides, the “antagonism” value in data set [1] was “antagonized Compound 48/80-induced scratching in a dose-related manner”.
On to `CN(C)C(=O)C(CCN1CCC(O)(c2ccc(Cl)cc2)CC1)(c1ccccc1)c1ccccc1.Cl` [(3), reference compound], for which the “antagonism” value in data set [1] is given as “antagonized Compound 48/80-induced scratching in a dose-related manner”.
With `CN1CC[C@]23c4c5ccc(O)c4O[C@H]2[C@@H](O)C=C[C@H]3[C@H]1C5` [morphine], in data set [2], the “generalized itching, share of patients” value was “about 1%”.

The values above are taken from patent publication US6353004B1, “Peripherally acting anti-pruritic opiates” (Adolor Coporation, priority 1997, dated 2002).
